How the values were obtained:
Assay in all cases: relative viability (nuclei count vs DMSO), 5 days (fraction); higher = more cells survive
[1] = compound: O=S(=O)(c1ccccc1)N(CC(F)(F)F)c1ccc(C(O)(C(F)(F)F)C(F)(F)F)cc1 + O=C(c1cc(Cc2n[nH]c(=O)c3ccccc23)ccc1F)N1CCN(C(=O)C2CC2)CC1 [Olaparib] (partner 8 µM)
Summary of the method: (§1)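 After 5 days of treatment, lung cancer cells in 1536-well plates were fixed and stained in a single step (final 0.05% Triton X-100, 1% formaldehyde, 1 ug/ml Hoechst) and their nuclei counted on 4× images. Treatment had been applied by pin tool the day after seeding as one drug alone or as a fixed anchor-drug dose with five library-drug doses (not always all listed) in √10 steps. Relative viability is the nuclei count of treated wells divided by that of vehicle wells, and values are medians of duplicate plates.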

[2] = compound: C1=CC2=C(C=CC(=C2)C=C3C(=O)NC(=NCC4=CC=CS4)S3)N=C1 [RO-3306] + CC(=O)Nc1cccc(-n2c(=O)n(C3CC3)c(=O)c3c(Nc4ccc(I)cc4F)n(C)c(=O)c(C)c32)c1 [Trametinib] (partner 0.02 µM)
Summary of the method: as §1

[3] = compound: C1=CC2=C(C=CC(=C2)C=C3C(=O)NC(=NCC4=CC=CS4)S3)N=C1 [RO-3306] + Cc1nc(NC(=O)N2CCC[C@H]2C(N)=O)sc1-c1ccnc(C(C)(C)C(F)(F)F)c1 [Alpelisib] (partner 2 µM)
Summary of the method: as §1

[4] = compound: O=S(=O)(c1ccccc1)N(CC(F)(F)F)c1ccc(C(O)(C(F)(F)F)C(F)(F)F)cc1 + CS(=O)(=O)N1CCN(Cc2cc3nc(-c4cccc5[nH]ncc45)nc(N4CCOCC4)c3s2)CC1 [Pictilisib] (partner 1 µM)
Summary of the method: as §1

UMC-11
relative viability ([1]; first compound 0.8 µM): 0.355
relative viability ([1]; first compound 2.53 µM): 0.459
relative viability ([1]; first compound 8 µM): 0.379
relative viability ([2]; first compound 0.01 µM): 0.734
relative viability ([2]; first compound 0.03162 µM): 0.679
relative viability ([2]; first compound 0.1 µM): 0.641
relative viability ([2]; first compound 0.3162 µM): 0.793
relative viability ([2]; first compound 1 µM): 0.531
relative viability ([3]; first compound 0.01 µM): 1.03
relative viability ([3]; first compound 0.03162 µM): 0.753
relative viability ([3]; first compound 0.1 µM): 0.948
relative viability ([3]; first compound 0.3162 µM): 1.18
relative viability ([3]; first compound 1 µM): 1.12
relative viability ([4]; first compound 0.8 µM): 0.908
relative viability ([4]; first compound 2.53 µM): 0.867
relative viability ([4]; first compound 8 µM): 1.14

— the supplement of paper PMC10307832
